We go through two compounds from patent US11691984B2, “Compounds and methods for DCAF-mediated protein degradation” (The Scripps Research Institute, priority 2018, dated 2023).

Structures are written as SMILES.

One test deals with T1, BRD4 (Homo sapiens, UniProt O60885).
T1 construct: degradation of endogenous BRD4 in HEK293T cells; endogenous in cells; host or cells: HEK293T (A10, A16); HEK293 DCAF16+/+ and DCAF16-/- clones (A11)
In words: Western blot of endogenous BRD4 in HEK293T cells. It is filed as cell-based. The note with it: HEK293T, 24 hours. The protocol: (§1) Cells were collected and lysed in 1% NP-40 lysis buffer (25 mM Tris-HCl pH 7.4, 150 mM NaCl, 10% glycerol, 1% Nonidet P-40) with complete protease inhibitor cocktail (Roche). Cells were vortexed and sonicated for 5 pulses (40%, 4). The supernatant was collected after centrifugation at 16,000 g for 10 min at 4° C. Protein concentration was determined by DC assay (Bio-Rad). Protein lysate was heated at 95° C. for 5 min in 1× Laemmli sample buffer. Proteins were resolved by 12% or 14% Novex Tris-Glycine Mini Gels (Invitrogen) and transferred to polyvinylidene fluoride (PVDF) membrane (0.2 Bio-Rad). The membrane was blocked with 5% BSA in TBST buffer (0.1% Tween 20, 20 mM Tris-HCl 7.6, 150 mM NaCl) at room temperature for 1 h. The antibody was diluted with fresh 5% BSA in TBST buffer (1:10000 dilution for FLAG, HA and β-Actin, 1:1000 dilution for others) and incubated with membrane (1 h room temperature for FLAG, HA and β-Actin, overnight 4° C. for others). Membrane was washed three times with TBST buffer and incubated with secondary antibody (1:5000 dilution in 5% BSA in TBST) at room temperature for 1 h. Membrane was washed three times with TBST buffer. The chemiluminescence signal in membrane was recorded after developing in ECL or ECL plus western blotting detection reagent using CL-XPosure film (Thermo Scientific). Relative band intensities were quantified using ImageJ.
On the technique in general: Immunoblotting shows a protein as a band on a membrane.

Test [1] deals with T2, HA-DCAF16 and FLAG-FKBP12_NLS (Homo sapiens, UniProt P62942+Q9NXF7).
T2 construct: expressed in transfected cells; host or cells: HEK293T stably expressing FLAG-FKBP12_NLS, transiently transfected with HA-DCAF16 (pRK5)
As to the kind of experiment: Co-immunoprecipitation of HA-DCAF16 with FLAG-FKBP12_NLS (ternary complex) in HEK293T cells. The test is classed as cell-based. The note with it: MG132 10 μM. The protocol:
as §1
(§2) Cells were collected and lysed in 1% NP-40 lysis buffer with complete protease inhibitor cocktail on ice for 10 min, followed by 5 pulses of sonication (40%, 4). After centrifugation at 16,000 g for 10 min at 4° C., the supernatant was collected. FLAG affinity gel (20 μL slurry per sample) was incubated with protein lysates at 4° C. for 1 h and washed four times with IP washing buffer. The affinity gel was heated at 95° C. for 10 min in 2× Laemmli sample buffer, followed by western blot analysis.

For test [2], the system named is HA-DCAF16 and FLAG-FKBP12_NLS. The test is described as above. The settings on record: KB02-SLF, cells pre-treated with MG132. It is filed as cell-based, human. The protocol: as §1, §2
The next test has as its target FLAG-FKBP12_NLS (Homo sapiens, UniProt P62942). As to the kind of experiment: Polyubiquitination of immunoprecipitated FLAG-FKBP12_NLS in HEK293T cells. It is filed as cell-based. The arrangement: expressed in transfected cells; host or cells: HEK293T, (lentiviral pCDH-CMV-MCS-EF1-Puro). The note with it: KB02-SLF 5 μM, MG132 10 μM, 2 hours. The protocol:
as §1, with “ImageJ. […]” for “ImageJ.”

T2 sequence (Q9NXF7 whole entry): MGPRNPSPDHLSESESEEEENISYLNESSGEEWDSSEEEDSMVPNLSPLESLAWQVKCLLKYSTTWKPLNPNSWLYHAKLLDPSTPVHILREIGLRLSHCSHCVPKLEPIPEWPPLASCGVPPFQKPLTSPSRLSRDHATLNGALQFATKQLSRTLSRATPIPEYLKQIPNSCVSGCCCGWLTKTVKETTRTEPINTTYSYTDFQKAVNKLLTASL
T2 sequence (P62942 2-108): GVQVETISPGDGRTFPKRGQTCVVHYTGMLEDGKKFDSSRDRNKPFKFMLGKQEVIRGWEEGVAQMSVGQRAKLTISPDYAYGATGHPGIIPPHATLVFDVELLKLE
T2 sequence (Q16531 whole entry partner): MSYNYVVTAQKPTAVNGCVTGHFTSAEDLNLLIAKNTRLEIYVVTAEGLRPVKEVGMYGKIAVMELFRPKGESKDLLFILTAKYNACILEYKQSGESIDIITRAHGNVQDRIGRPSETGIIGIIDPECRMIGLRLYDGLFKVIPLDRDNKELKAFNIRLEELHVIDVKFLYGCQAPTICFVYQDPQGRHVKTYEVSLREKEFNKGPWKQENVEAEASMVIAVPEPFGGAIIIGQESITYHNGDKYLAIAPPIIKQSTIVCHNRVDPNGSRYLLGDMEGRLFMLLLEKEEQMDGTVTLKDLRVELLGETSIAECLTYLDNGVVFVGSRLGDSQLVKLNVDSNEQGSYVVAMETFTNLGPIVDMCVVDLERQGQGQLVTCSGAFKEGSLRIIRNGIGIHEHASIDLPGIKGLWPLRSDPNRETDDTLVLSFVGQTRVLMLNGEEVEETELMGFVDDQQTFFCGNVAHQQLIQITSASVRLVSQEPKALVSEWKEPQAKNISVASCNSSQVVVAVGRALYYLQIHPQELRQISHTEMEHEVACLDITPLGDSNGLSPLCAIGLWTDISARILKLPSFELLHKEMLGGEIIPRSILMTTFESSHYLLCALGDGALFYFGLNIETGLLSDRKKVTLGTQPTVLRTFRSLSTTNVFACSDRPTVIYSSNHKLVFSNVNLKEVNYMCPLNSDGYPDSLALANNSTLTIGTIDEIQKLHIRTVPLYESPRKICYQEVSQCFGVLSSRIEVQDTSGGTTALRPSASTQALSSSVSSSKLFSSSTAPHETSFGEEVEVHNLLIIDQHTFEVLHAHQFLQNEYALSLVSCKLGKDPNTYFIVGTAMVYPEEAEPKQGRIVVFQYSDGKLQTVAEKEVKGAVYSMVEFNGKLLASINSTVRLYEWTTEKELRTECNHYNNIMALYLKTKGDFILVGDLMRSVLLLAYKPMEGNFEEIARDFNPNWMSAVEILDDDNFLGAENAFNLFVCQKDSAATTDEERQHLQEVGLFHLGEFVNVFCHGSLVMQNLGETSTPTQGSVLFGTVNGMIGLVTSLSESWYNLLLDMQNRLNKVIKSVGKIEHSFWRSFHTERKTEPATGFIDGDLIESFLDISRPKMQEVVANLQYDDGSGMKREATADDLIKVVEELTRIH
Chain of FLAG-FKBP12_NLS (P62942 whole entry): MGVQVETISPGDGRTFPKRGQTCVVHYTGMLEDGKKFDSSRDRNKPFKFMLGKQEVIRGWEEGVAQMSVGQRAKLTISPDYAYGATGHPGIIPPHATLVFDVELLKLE

Consider `Cc1sc2c(c1C)C(c1ccc(Cl)cc1)=N[C@@H](CC(=O)NCCOCCOCCNC(=O)COc1ccc3c(c1)CCCN3C(=O)CCl)c1nnc(C)n1-2` [KB02-JQ1, (S)-2-((1-(2-chloroacetyl)-1,2,3,4-tetrahydroquinolin-6-yl)oxy)-N-(2-(2-(2-(2-(4-(4-chlorophenyl)-2,3,9-trimethyl-6H-thieno[3,2-f][1,2,4]triazolo[4,3-a][1,4]diazepin-6-yl)acetamido)ethoxy)ethoxy)ethyl)acetamide], for which, on BRD4, the “concentration for degradation of BRD4” value fell in the range of 20 to 40 µM and the “degradation of BRD4” value is “promoted, in a concentration-dependent manner, the degradation of BRD4”.
Take `CCC(C)(C)C(=O)C(=O)N1CCCC[C@H]1C(=O)O[C@H](CCc1ccc(OC)c(OC)c1)c1cccc(NC(=O)CCOCCOCCNC(=O)COc2ccc3c(c2)CCCN3C(=O)CCl)c1` [KB02-SLF, (R)-1-(3-(3-(2-(2-(2-((1-(2-chloroacetyl)-1,2,3,4-tetrahydroquinolin-6-yl)oxy)acetamido)ethoxy)ethoxy)propanamido)phenyl)-3-(3,4-dimethoxyphenyl)propyl (S)-1-(3,3-dimethyl-2-oxopentanoyl)piperidine-2-carboxylate]: the “co-immunoprecipitation of HA-DCAF16 with FLAG-FKBP12_NLS” value in test [1] (5 μM, 2 hours) was “HA-DCAF16 and DDB1 co-immunoprecipitated with FLAG-FKBP12_NLS”. In addition, the “conversion of HA-DCAF16 to higher molecular weight (HMW) form” value in test [1] (increasing concentrations of KB02-SLF, 2 h) is recorded as “Only a modest fraction of HA-DCAF16 was converted to this HMW”. In addition, in test [2], the “co-immunoprecipitation of C173S- and C178S-DCAF16 with FKBP12_NLS” value is listed as “co-immunoprecipitated with FKBP12_NLS in KB02-SLF-treated cells”; the “co-immunoprecipitation of C177S- and C179S-DCAF16 with FKBP12_NLS” value is “not C177S- and C179S-DCAF16”. Moreover, on FLAG-FKBP12_NLS, the “polyubiquitination of FKBP12_NLS after shRNA knockdown of DCAF16” value is “abolished KB02-SLF-induced polyubiquitination of FKBP12_NLS” and the “polyubiquitination of nuclear FKBP12_NLS” value is given as “induced polyubiquitination of nuclear FKBP12_NLS”.
